From US8252283B2, “Method for treating vascular disorders” (Cytotools GmbH, priority 1999, dated 2012)
Entries after “also recorded” stand apart in the source; their conditions may differ.

What was measured:
[1] = system: HUVEC; experiment: Induced calcium influx into the cells, intracellular calcium indicator Fluo-3 AM; type: cell-based, human; conditions: static culture, measured at addition of substance
Description: Fluo-3 is a calcium indicator which forms a fluorescent complex after binding of Ca^2+. The ester Fluo-3 AM is taken up by the cells through diffusion. The calcium indicator Fluo 3 is produced only after hydrolysis of the ester in the cell. […] The measurement is carried out with normal fluorescein filters. At an excitation wavelength of 488 nm (500 nm), the emission maximum is at 525 nm and increases by a factor of 100 (200) through calcium binding.
Confluent HUVEC cell lawns in 24-well plates are washed three times with serum-free medium, incubated with preheated serum-free medium with Fluo-3 AM under culture conditions for 30 minutes and washed three times, and the plate is measured with a fluorimeter. First the sensitivity of the instrument is adjusted, and then fluorescence values corresponding to the instantaneous calcium level in the cell are recorded every 1-10 seconds. Substances can be added to the cells while the measurement is taking place. […] Assessment of the calcium level is possible with this method.
The influx of calcium into the cells can be employed as early indicator.
The test system can also be carried out with the calcium indicator Fluo-3 AM. […] The cells are employed for the test after complete confluence is reached. […] During the measurement, the substances b, c, e, f, g are added to the cells. […]

[2] = system: perfused HUVEC; experiment: Apoptosis rate of endothelial cells in dynamic (perfusion) culture, DAPI staining; type: cell-based, human; conditions: for Effect on apoptosis (in words): perfusion culture
Description: (§1) The culture supernatant is aspirated off of a Petri dish, and the cell lawn is fixed with 1 ml of formaldehyde solution on ice for 15 minutes, washed twice with 2 ml of PBS, treated with 0.5 ml of DAPI solution for 15 minutes, washed with PBS and evaluated under a fluorescence microscope. The UV filter set and a 20× or 40× objective are used. 500-1 000 cells are selected at random, and the cells with apoptotic nuclei are counted.
(§2) After complete confluence is reached, the cells are employed for the test. Firstly, thrombospondin 1 is added in various concentrations (1-600 μg/ml) to fresh medium and compared with the effect of conditioned medium on the spontaneous apoptosis rate of HUVEC. […] The apoptosis rate is determined by staining apoptotic cells with DAPI.

[3] = system: human umbilical vein endothelial cells (HUVEC); experiment: Apoptosis rate of confluent endothelial cells in static culture, DAPI staining; type: cell-based; conditions: for Effect on the apoptosis rate (in words): substance(s) added to fresh medium
Description: HUVEC are cultivated in gelatin-coated culture vessels at 37° C., 5% CO2 with a water vapor-saturated air atmosphere. The culture medium is changed every 2-3 days; at confluence, the cells are passaged with a division rate of from 1:3 to 1:5. HUVEC grow with strict contact inhibition and form monolayer cell lawns with a typical cobblestone morphology. At confluence, the cultures reach cell densities of 4-9×10^4 cells/cm^2. Only HUVEC cultures of passages 1-4 are used for apoptosis investigations.
as §1
The apoptosis index is calculated by the following formula: […]
as §2
The cells are seeded into the appropriate culture vessels (e.g. 24-well plate/0.5 ml per well) and employed for the test after complete confluence is reached. Investigations into the effect of various peptides and proteins (table 2) on the apoptosis rate of endothelial cells are carried out.
The cells are seeded in the appropriate culture vessels (e.g. 24-well plate/0.5 ml per well) and employed for the test after complete confluence is reached. […] The apoptotic cells and the total cell count are determined and the apoptosis index is calculated (percent of apoptotic cells). The data of 3 independent experiments are indicated in table 1, stating the mean and standard deviation.

[4] = system: HUVEC; experiment: Apoptosis rate after cone and plate shear pre-cultivation and transfer to static wells, DAPI staining (Examples 11, 12); type: cell-based, human; conditions: for Apoptosis rate (%) with EGTA and with peptides: 0.5 mM EGTA, RGD peptide 250 μg/ml + IAP peptide 400 μg/ml
Description: The cone and plate shear apparatus is first cleaned with a soft cloth and 70% ethanol, the cone is sterilized, and the apparatus is then stabilized at 37° C. in a heating cabinet for at least 30 min. The precultivated cells are washed with culture medium and provided with 0.06 ml/cm^2 fresh culture medium, and the culture dish is rapidly fitted into the cone and plate shear apparatus.
The cone is raised using the coarse adjustment, and the culture dish together with lid is carefully inserted into the holder provided therefor. The lid is taken off and the cone is lowered onto the culture dish and adjusted: the tip of a cone is then a minimal distance from the cell lawn and the cone moves round without abrading. The assembled cone and plate shear apparatus is placed in an incubator at 37° C., 5% (v/v) CO2 with a water vapor-saturated atmosphere for dynamic cultivation of the cells.
as §1
The culture dish is removed and divided into 12 independent culture wells (culture area of each well 0.8 cm^2) by putting in a suitable insert. Half of the culture is cultivated in culture medium with EGTA and the second half is cultivated in culture medium without EGTA. […] The apoptosis rate is determined by staining the apoptotic cells with DAPI.

[5] = static, 48 h, substance(s) in fresh medium, TSP 1 μg/ml, RGD 250 μg/ml, CBD 400 μg/ml

Compound: Thrombospondin 1 [TSP-1]
- Effect on intracellular calcium level (in words) [1]: increase in the intracellular calcium level; also recorded: calcium influx into the cell
- Apoptosis rate (%) after 24 h ([2]; dynamic culturing conditions, TSP-1 1 μg/ml): <0.1%
- Effect on apoptosis (in words) [2]: no effect on apoptosis
- Effect on apoptosis (in words) ([2]; listed as Thrombospondin): no effect on perfused HUVEC
- Apoptosis rate (%) ([3]; static culture, 24 h, substance alone (in fresh medium; TSP-1 1 μg/ml, antiserum 1:20, mAb 1:30)): 3.0 ± 0.4%
- Effect on the apoptosis rate (in words) ([3]; static culture): increase in spontaneous apoptosis
- Effect on the apoptosis rate (in words) ([3]; static culture, listed as thrombospondin): significant increase in the apoptosis rate
- Apoptosis rate (%) after 24 h ([3]; static culturing conditions, TSP-1 1 μg/ml): 3.0 ± 0.4%
- Apoptosis rate (%) [3, 5]: 6.9 ± 1.2%
- Apoptosis rate [%] (with SEM) ([3]; static, 48 hours, fresh medium + TSP-1 1 μg/ml alone): 7.3 ± 0.6%

Compound: O=C(O)CN(CCOCCOCCN(CC(=O)O)CC(=O)O)CC(=O)O [EGTA]
- Apoptosis rate (%) with EGTA [2.5 mM] ([4]; 0 hours): 0.40 ± 0.22%
- Apoptosis rate (%) with EGTA and with peptides ([4]; 0 hours): 0.45 ± 0.24%
- Apoptosis rate (%) with EGTA [2.5 mM] ([4]; 2 hours): 0.42 ± 0.22%
- Apoptosis rate (%) with EGTA and with peptides ([4]; 2 hours): 1.00 ± 0.29%
- Apoptosis rate (%) with EGTA [2.5 mM] ([4]; 3 hours): 0.96 ± 0.27%
- Apoptosis rate (%) with EGTA and with peptides ([4]; 3 hours): 0.65 ± 0.24%
- Apoptosis rate (%) with EGTA [2.5 mM] ([4]; 4 hours): 1.56 ± 0.23%
- Apoptosis rate (%) with EGTA and with peptides ([4]; 4 hours): 1.25 ± 0.33%
- Apoptosis rate (%) with EGTA [2.5 mM] ([4]; 5 hours): 2.26 ± 0.35%
- Effect on the apoptosis rate (in words) ([4]; EGTA in culture medium with the active peptides): significant reduction in the apoptosis rate
- Effect on the apoptosis rate (in words) ([4]; culture medium with 2.5 mmol/l EGTA, static after shear apparatus): significant reduction in the apoptosis rate

Compound: cyclic Arg-Gly-Asp-(D-Phe)-Val peptide [active RGD]
- Effect on the apoptosis rate (in words) ([3]; static culture): no effect on the apoptosis rate
- Apoptosis rate (%) [3, 5]: 1.2 ± 0.5%
